Assay results as given in patent US8633232B2, “Compounds, compositions and methods of using same for modulating uric acid levels” (Ardea Biosciences, Inc., priority 2008, dated 2014).

What follows are compounds tested against T1, hURAT1 Transporter (Homo sapiens, UniProt Q96S37) (assay: Uric Acid Uptake Assay). Conditions: HEK293/urat1 cells; C14 Uric Acid 40 μM; 10 minutes at room temperature.
T1 construct: Full-length human URAT1 gene (SLC22A12) was subcloned from plasmid pCMV6-XL5
T1 sequence (Q96S37 1-553): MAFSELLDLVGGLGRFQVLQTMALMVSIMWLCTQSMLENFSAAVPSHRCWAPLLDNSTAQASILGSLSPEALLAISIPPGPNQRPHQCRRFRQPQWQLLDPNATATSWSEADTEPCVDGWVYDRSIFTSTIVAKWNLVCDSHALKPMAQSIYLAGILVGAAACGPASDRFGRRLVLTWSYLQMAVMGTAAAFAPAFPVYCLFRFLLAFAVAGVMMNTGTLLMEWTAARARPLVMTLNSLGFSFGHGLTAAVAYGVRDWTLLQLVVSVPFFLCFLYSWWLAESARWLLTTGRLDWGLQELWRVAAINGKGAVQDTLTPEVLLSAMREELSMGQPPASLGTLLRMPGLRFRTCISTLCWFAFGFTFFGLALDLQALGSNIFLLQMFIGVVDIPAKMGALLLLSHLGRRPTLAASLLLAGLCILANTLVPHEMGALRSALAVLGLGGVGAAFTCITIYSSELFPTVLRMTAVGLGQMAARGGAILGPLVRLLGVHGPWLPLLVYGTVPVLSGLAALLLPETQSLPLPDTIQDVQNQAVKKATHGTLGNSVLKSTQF
Format: cell-based
From the text: Creation of Stable Cell Lines Expressing hURAT1 Transporter: Full-length human URAT1 gene (SLC22A12) was subcloned from plasmid pCMV6-XL5 (Origene) into eukaryotic expression plasmid pCMV6/Neo (Origene) using Not I restriction sites. Gene sequencing confirmed the sequence of hURAT1 as outlined in Genbank (Accession #NM_144585.2). HEK293 human embryonic kidney cells (ATCC#CRL-1573) were propagated in EMEM tissue culture medium as described by ATCC in an atmosphere of 5% CO2 and 95% air. Transfections of HEK293 cells with the pCMV6/Neo/URAT1 construct were performed using L2000 transfection reagent (Invitrogen) as described by the manufacturer. After 24 h the transfected cells were split into 10 cm tissue culture plates and grown for 1 day after which the medium was replaced with fresh growth medium containing G418 (Gibco) at 0.5 mg/ml final concentration. Drug-resistant colonies were selected after approximately 8 days and then tested for ^14C-uric acid transport activity. The HEK293/urat1 cells are plated on Poly-D-Lysine Coated 96-well Plates at a density of 75,000 cells per well.
Cells were grown overnight (20-26 hours) at 37° C. in an incubator. Plates were allowed to come to room temperature and media was washed out with one wash of […] of Wash Buffer (125 mM Na Gluconate, 10 mM Hepes ph 7.3). Compound or vehicle is added in assay buffer with C14 Uric Acid for a final concentration of 40 μM Uric Acid with a specific activity of 54 mCi/mmol. Assay Buffer is 125 mM Sodium Gluconate, 4.8 mM Potassium Gluconate, 1.2 mM Potassium phosphate, monobasic, 1.2 mM magnesium sulfate, 1.3 mM Ca Gluconate, 5.6 mM Glucose, 25 mM HEPES, pH 7.3. Plates were incubated at room temperature for 10 minutes then washed 3 times with 50 μl Wash Buffer and 3 times with 250 μl Wash Buffer. Microscint 20 Scintillation Fluid was added and plates were incubated overnight at 45° C. to equilibrate. Plates are then read on the TopCount Plate Reader and an EC50 value generated. (See Enomoto et al, Nature, 2002, 417, 447-451 and Anzai et al, J. Biol. Chem., 2004, 279, 45942-45950.).
Compounds prepared as described herein, were examined according to the procedure described above and EC50 values generated. […] (N/A means data not available).
`Cc1nnc(SCC(=O)O)n1Cc1ccccc1` was tested, and the EC50 was > 30 µM. With `Cc1nnc(SCC(=O)O)n1-c1ccc2c(c1)OCCO2` the EC50 was > 30 µM. `CCOC(=O)CSc1nncn1-c1ccc(C)c2c1CCCN2` was tested, and the EC50 was > 30 µM. With `CCOC(=O)CSc1nncn1-c1c(C)cc(C)c2c1CCCC2` the EC50 was 1 to 30 µM. In the case of `CCOC(=O)CSc1nncn1-c1ccc(C)c2c1CCCC2`, the EC50 is reported as 1 to 30 µM. `Cc1cc(C)c(-n2cnnc2SCC(=O)O)c2c1CCCC2` was tested, and the EC50 was > 30 µM. In the case of `Cc1ccc(-n2cnnc2SCC(=O)O)c2c1CCCC2`, the EC50 is reported as > 30 µM. In the case of `Cc1ccc(-n2cnnc2SCC(=O)O)c2c1NCCC2`, the EC50 is reported as > 30 µM. With `Cc1nnc(SCC(=O)O)n1-c1ccc(N(C)C)c2ccccc12` the EC50 was > 30 µM. `Cc1nnc(SCC(=O)O)n1-c1cccc2cccnc12` was tested, and the EC50 was > 30 µM. With `Cc1ccc(-n2c(C)nnc2SCC(=O)O)cc1C` the EC50 was > 30 µM. For `Cc1nnc(SCC(=O)O)n1-c1ccccc1Cl`, the EC50 was > 30 µM. `Cc1nnc(SCC(=O)O)n1-c1ccc(Oc2ccccc2)cc1` was tested, and the EC50 was > 30 µM. `Cc1nnc(SCC(=O)O)n1-c1ccc(C(F)(F)F)cc1` was tested, and the EC50 was > 30 µM. With `Cc1ccc(-n2c(C)nnc2SCC(=O)O)c(C)c1` the EC50 was > 30 µM. In the case of `COc1ccccc1-n1c(C)nnc1SCC(=O)O`, the EC50 is reported as > 30 µM. `Cc1cccc(C)c1-n1c(C)nnc1SCC(=O)O` was tested, and the EC50 was > 30 µM. With `Cc1nnc(SCC(=O)O)n1-c1cc(Cl)ccc1Cl` the EC50 was > 30 µM. `Cc1nnc(SCC(=O)O)n1-c1ccc(C(=O)O)cc1` was tested, and the EC50 was > 30 µM. In the case of `Cc1nnc(SCC(=O)O)n1-c1cccc(Cl)c1`, the EC50 is reported as > 30 µM. For `Cc1nnc(SCC(=O)O)n1-c1ccccc1F`, the EC50 was > 30 µM. With `Cc1nnc(SCC(=O)O)n1-c1ccccc1C(F)(F)F` the EC50 was > 30 µM. Compound `CCOC(=O)CCCSc1nnc(N)n1-c1ccc(C2CC2)c2ccccc12` has an EC50 of 1 to 30 µM. For `Nc1nnc(SCCCC(=O)O)n1-c1ccc(C2CC2)c2ccccc12`, the EC50 was 1 to 30 µM. `CCOC(=O)CSc1nnc(N)n1-c1ccc(C2CC2)c2ccccc12` was tested, and the EC50 was > 30 µM. Work on `Nc1nnc(SCC(=O)O)n1-c1ccc(C2CC2)c2ccccc12` yielded an EC50 of 1 to 30 µM. With `CCOC(=O)C(C)Sc1nnc(N)n1-c1ccc(C2CC2)c2ccccc12` (centres unmarked) the EC50 was 1 to 30 µM. Work on `CC(Sc1nnc(N)n1-c1ccc(C2CC2)c2ccccc12)C(=O)O` (centres unmarked) yielded an EC50 of 1 to 30 µM. For `CCCSc1nnc(N)n1-c1ccc(C2CC2)c2ccccc12`, the EC50 was > 30 µM. With `CCc1ccc(-n2c(CF)nnc2SCC(=O)O)c2ccccc12` the EC50 was 1 to 30 µM. Compound `Cc1ccc(-n2c(SCC(=O)O)nnc2C(F)F)c2ccccc12` has an EC50 of 1 to 30 µM. In the case of `Cc1ccc(-n2c(SCC(N)=O)nnc2C(F)F)c2c1CCCC2`, the EC50 is reported as 1 to 30 µM. In the case of `CC(C)(C)c1ccc(-n2c(SCC(=O)O)nnc2C(F)F)c(Cl)c1`, the EC50 is reported as > 30 µM. `O=C(O)CSc1nnc(C(F)F)n1-c1ccc(C2CC2)c2ccccc12` showed an EC50 of 1 to 30 µM. In the case of `COc1ccc(Cl)c(-n2c(SCC(=O)O)nnc2C(F)F)c1`, the EC50 is reported as > 30 µM. `CCOC(=O)CSc1nnc(C(F)F)n1-c1ccc(OC)c2c1CCCC2` was tested, and the EC50 was > 30 µM. For `COc1ccc(-n2c(SCC(=O)O)nnc2C(F)F)c2c1CCCC2`, the EC50 was 1 to 30 µM. For `CCOC(=O)CSc1nnc(C(F)F)n1-c1ccc(C)c2c1CCCN2`, the EC50 was > 30 µM. `CCOC(=O)CSc1nnc(C(F)F)n1-c1c(C)cc(C)c2ccccc12` was tested, and the EC50 was > 30 µM. For `Cc1cc(C)c2ccccc2c1-n1c(SCC(=O)O)nnc1C(F)F`, the EC50 was 1 to 30 µM. With `Cc1ccc(-n2c(SCC(=O)O)nnc2C(F)F)c2c1NCCC2` the EC50 was > 30 µM. `O=C(O)CSc1nnc(C(F)(F)F)n1-c1cccc2ccccc12` showed an EC50 of 1 to 30 µM. With `CCOC(=O)CSc1nnc(C(F)(F)F)n1-c1ccc(OC)c2c1CCCC2` the EC50 was > 30 µM. Work on `CCOC(=O)CSc1nnc(C(F)(F)F)n1-c1ccc(C)c2c1CCCC2` yielded an EC50 of 1 to 30 µM. Compound `Cc1ccc(-n2c(SCC(=O)O)nnc2C(F)(F)F)c2c1CCCC2` has an EC50 of 0.001 to 1 µM. For `COc1ccc(-n2c(SCC(=O)O)nnc2C(F)(F)F)c2c1CCCC2`, the EC50 was 1 to 30 µM. `Cc1ccc(-n2c(Br)nnc2SCC(=O)O)c2ccccc12` was tested, and the EC50 was 1 to 30 µM. Work on `O=C(O)CSc1nnc(Br)n1-c1cccc2ccccc12` yielded an EC50 of 1 to 30 µM. Compound `CCc1ccc(-n2c(Br)nnc2SCC(=O)OC)c2ccccc12` has an EC50 of 0.001 to 1 µM. For `CCc1ccc(-n2c(Br)nnc2SCC(=O)O)c2ccccc12`, the EC50 was 0.001 to 1 µM. For `CCOC(=O)CCCSc1nnc(Br)n1-c1ccc(C2CC2)c2ccccc12`, the EC50 was 1 to 30 µM. Work on `CCOC(=O)CSc1nnc(Br)n1-c1ccc(C2CC2)c2ccccc12` yielded an EC50 of 0.001 to 1 µM. In the case of `O=C(O)CCCSc1nnc(Br)n1-c1ccc(C2CC2)c2ccccc12`, the EC50 is reported as 0.001 to 1 µM. For `COc1ccc2c(C3CC3)ccc(-n3c(Br)nnc3SCC(=O)O)c2c1`, the EC50 was 1 to 30 µM. For `O=C(O)CSc1nnc(Br)n1-c1cccc2c(OCC3CC3)cccc12`, the EC50 was > 30 µM. For `CC(C)(C)c1ccc(-n2c(Br)nnc2SCC(=O)O)c(Cl)c1`, the EC50 was > 30 µM. For `COc1ccc2c(Br)ccc(-n3c(Br)nnc3SCC(=O)O)c2c1`, the EC50 was 1 to 30 µM. Compound `CCc1ccc(-n2c(Br)nnc2SCC(=O)O)c2cc(OC)ccc12` has an EC50 of 1 to 30 µM. In the case of `COc1ccc(Cl)c(-n2c(Br)nnc2SCC(=O)O)c1`, the EC50 is reported as > 30 µM. `O=C(O)CSc1nnc(Br)n1-c1cc(C(F)(F)F)ccc1Cl` was tested, and the EC50 was > 30 µM. For `CCOC(=O)C(C)Sc1nnc(Br)n1-c1ccc(C2CC2)c2ccccc12` (centres unmarked), the EC50 was 1 to 30 µM. Compound `CC(Sc1nnc(Br)n1-c1ccc(C2CC2)c2ccccc12)C(=O)O` (centres unmarked) has an EC50 of 0.001 to 1 µM. `CCCSc1nnc(Br)n1-c1ccc(C2CC2)c2ccccc12` showed an EC50 of 1 to 30 µM. With `CC(C)(C)OC(=O)CSc1nnc(Br)n1-c1ccc(C2CC2)c2ccccc12` the EC50 was > 30 µM. `CCOC(=O)C(C)(C)Sc1nnc(Br)n1-c1ccc(CC)c2ccccc12` was tested, and the EC50 was 0.001 to 1 µM. `O=C(O)CSc1nnc(-c2ccccc2)n1-c1ccc(C2CC2)c2ccccc12` was tested, and the EC50 was 1 to 30 µM. `CCOC(=O)CSc1nnc(-c2ccccc2)n1-c1ccc(C2CC2)c2ccccc12` gave an EC50 of 1 to 30 µM. `CCc1ccc(-n2c(Br)nnc2SC(C)(C)C(=O)O)c2ccccc12` [2-(5-bromo-4-(4-ethylnaphthalen-1-yl)-4H-1,2,4-triazol-3-ylthio)-2-methylpropanoic acid] was tested, and the EC50 was 0.001 to 1 µM. `Cc1cc(C)c(-n2c(SCC(=O)O)nnc2C(F)(F)F)c2c1CCCC2` [Example 1A, 2-(4-(2,4-Dimethyl-5,6,7,8-tetrahydronaphthalen-1-yl)-5-(trifluoromethyl)-4H-1,2,4-triazol-3-ylthio)acetic acid] gave an EC50 of 1 to 30 µM. `Cc1ccc2c(C)ccc(-n3cnnc3SCC(=O)O)c2c1` [Example 2, 2-(4-(4,7-Dimethylnaphthalen-1-yl)-4H-1,2,4-triazol-3-ylthio)acetic acid] was tested, and the EC50 was > 30 µM. For `CCc1ccc(-n2c(SCC(=O)O)nnc2C(F)F)c2ccccc12` [Example 4, 2-(5-(difluoromethyl)-4-(4-ethylnaphthalen-1-yl)-4H-1,2,4-triazol-3-ylthio)acetic acid], the EC50 was 1 to 30 µM. In the case of `CC(C)(Sc1nnc(N)n1-c1ccc(C2CC2)c2ccccc12)C(=O)O` [Example 5, 2-(5-amino-4-(4-cyclopropylnaphthalen-1-yl)-4H-1,2,4-triazol-3-ylthio)-2-methylpropanoic acid], the EC50 is reported as > 30 µM. For `CC(C)(Sc1nnc(C(F)(F)F)n1-c1ccc(C2CC2)c2ccccc12)C(=O)O` [Example 9, 2-(4-(4-Cyclopropylnaphthalen-1-yl)-5-(trifluoromethyl)-4H-1,2,4-triazol-3-ylthio)-2-methylpropanoic acid], the EC50 was 0.001 to 1 µM. With `CC(C)(C)OC(=O)C(C)(C)Sc1nnc(Br)n1-c1ccc(C2CC2)c2ccccc12` [Example 101, tert-Butyl 2-(5-bromo-4-(4-cyclopropylnaphthalen-1-yl)-4H-1,2,4-triazol-3-ylthio)-2-methylpropanoate] the EC50 was > 30 µM.
